Source: US20260207623A1, “USE OF ESTETROL IN HEPATICALLY IMPAIRED PATIENTS” (ESTETRA SRL, priority 2022, published 2026)
Like-named read-outs stand apart in the source and are kept apart here.

Legend:
[1] = test system: post-menopausal women; experiment: Example 2 dose-finding study: weekly frequency of moderate to severe VMS (absolute and relative change, responders); type: in vivo, human; conditions: for Weekly frequency of moderate to severe VMS, relative change (% from baseline), Mean: section B analysis
From the text: Enrolment was approximately 18 months. Individual subject participation was up to 27 weeks: up to 6 weeks pre-screening and washout, up to 4 weeks screening and run-in period, up to 91 days (13 weeks) of E4 monohydrate or placebo treatment followed by 2 weeks (14 days) of progestin therapy and a Follow up visit 1 week after completion of progestin therapy in non-hysterectomied subjects only.
To define the minimum effective dose (MED) of the oral dose of E4 by evaluating changes in frequency and in severity of moderate to severe vasomotor symptoms (VMS).
This was a prospective, multicentre, randomised, placebo-controlled, double-blinded, dose-finding study.
Eligible subjects were hysterectomied and non-hysterectomied post-menopausal women aged 40 to 65 years, inclusive, presenting at least 7 moderate to severe hot flushes/day or at least 50 moderate to severe hot flushes/week.
All treatments (Estetrol, hereinafter E4 as monohydrate, [2.5 mg, 5 mg, 10 mg, 15 mg] capsule) were administered once daily (QD) per os for at least 12 consecutive weeks until the last biological assessments (Day 91 maximum) had been performed.
In order to analyse the data recorded in this study, treatment groups have been compared using an ANCOVA (analysis of covariance) with respect to the change in weekly frequency of moderate to severe VMS from baseline to weeks 4 and 12. The ANCOVA model includes treatment (“trt1”) and study centre (“SITEPOOL”) as a fixed effect and baseline (“base”) as a covariate.
VMS frequency was also studied by grouping patients according to their degree of response.

[2] = test system: post-menopausal women; experiment: Example 2: number of patients with endometrial biopsies; type: in vivo, human
Description: If during the course of the trial, a double layer endometrial thickness≥15 mm was detected on TVUS and/or abnormal uterine bleeding (in the judgement of the gynecologist in light of the estrogen therapy) was reported by a non-hysterectomied person, they underwent an endometrial biopsy and was treated with progestin (10 mg dydrogesterone) QD until end of Week 11 in a sequential way (i.e., a 14 day progestin treatment period followed by a 14 day progestin treatment pause) in addition to the E4/placebo treatment. […] If an abnormal uterine bleeding occurred again after a first normal endometrial biopsy, a thorough gynaecological examination and a TVUS were performed. If necessary in the judgment of the gynecologist, a second endometrial biopsy was performed.
1. Number of Patients with Biopsies

[3] = test system: post-menopausal women; experiment: Example 2: adverse events (AEs, TEAEs) per treatment group; type: in vivo, human
From the text: This is confirmed by the following statistical analysis. Using a Poisson regression model with a random effect for the patient and treatment group as a covariate to model the count of TEAEs in the different treatment groups, it can be shown that there is no statistical difference between the treatment groups (p value of 0.099). Second, a chi-square test was used to assess if the prevalence of patients reporting TEAEs in each treatment group was similar. No statistical difference was found between the treatment groups (p value of 0.575).

[4] = test system: post-menopausal women; experiment: Example 2: patients leaving the study; type: in vivo, human
From the text: 3. Patients Leaving the Study

[5] = cited from earlier work
[6] = mass balance study in humans; cited from earlier work

C[C@]12CC[C@@H]3c4ccc(O)cc4CC[C@H]3[C@@H]1[C@@H](O)[C@@H](O)[C@@H]2O [E4 monohydrate, estetrol monohydrate]
Mean change from baseline in weekly frequency of moderate to severe VMS ([1]; 2.5 mg QD, week 0): 0.00 | Mean relative change (% from baseline) in weekly frequency of moderate to severe VMS ([1]; 2.5 mg QD, week 0): 0% | Mean relative change (% from baseline) in weekly frequency of moderate to severe VMS ([1]; 2.5 mg QD, week 1): −23% | Mean relative change (% from baseline) in weekly frequency of moderate to severe VMS ([1]; 2.5 mg QD, week 2): −34% | Mean relative change (% from baseline) in weekly frequency of moderate to severe VMS ([1]; 2.5 mg QD, week 3): −44% | Mean relative change (% from baseline) in weekly frequency of moderate to severe VMS ([1]; 2.5 mg QD, week 4): −49% | Mean relative change (% from baseline) in weekly frequency of moderate to severe VMS ([1]; 2.5 mg QD, week 5): −50% | Mean relative change (% from baseline) in weekly frequency of moderate to severe VMS ([1]; 2.5 mg QD, week 6): −54% | Mean relative change (% from baseline) in weekly frequency of moderate to severe VMS ([1]; 2.5 mg QD, week 7): −57% | Mean relative change (% from baseline) in weekly frequency of moderate to severe VMS ([1]; 2.5 mg QD, week 8): −58% | Mean relative change (% from baseline) in weekly frequency of moderate to severe VMS ([1]; 2.5 mg QD, week 9): −61% | Mean relative change (% from baseline) in weekly frequency of moderate to severe VMS ([1]; 2.5 mg QD, week 10): −61% | Mean relative change (% from baseline) in weekly frequency of moderate to severe VMS ([1]; 2.5 mg QD, week 11): −60% | Mean relative change (% from baseline) in weekly frequency of moderate to severe VMS ([1]; 2.5 mg QD, week 12): −61% | Mean change from baseline in weekly frequency of moderate to severe VMS ([1]; 5 mg QD, week 0): 0.00 | Mean relative change (% from baseline) in weekly frequency of moderate to severe VMS ([1]; 5 mg QD, week 0): 0% | Mean relative change (% from baseline) in weekly frequency of moderate to severe VMS ([1]; 5 mg QD, week 1): −23% | Mean relative change (% from baseline) in weekly frequency of moderate to severe VMS ([1]; 5 mg QD, week 2): −33% | Mean relative change (% from baseline) in weekly frequency of moderate to severe VMS ([1]; 5 mg QD, week 3): −38% | Mean relative change (% from baseline) in weekly frequency of moderate to severe VMS ([1]; 5 mg QD, week 4): −43% | Mean relative change (% from baseline) in weekly frequency of moderate to severe VMS ([1]; 5 mg QD, week 5): −47% | Mean relative change (% from baseline) in weekly frequency of moderate to severe VMS ([1]; 5 mg QD, week 6): −57% | Mean relative change (% from baseline) in weekly frequency of moderate to severe VMS ([1]; 5 mg QD, week 7): −57% | Mean relative change (% from baseline) in weekly frequency of moderate to severe VMS ([1]; 5 mg QD, week 8): −57% | Mean relative change (% from baseline) in weekly frequency of moderate to severe VMS ([1]; 5 mg QD, week 9): −59% | Mean relative change (% from baseline) in weekly frequency of moderate to severe VMS ([1]; 5 mg QD, week 10): −60% | Mean relative change (% from baseline) in weekly frequency of moderate to severe VMS ([1]; 5 mg QD, week 11): −63% | Mean relative change (% from baseline) in weekly frequency of moderate to severe VMS ([1]; 5 mg QD, week 12): −62% | Mean relative change (% from baseline) in weekly frequency of moderate to severe VMS ([1]; 10 mg QD, week 1): −21% | Mean relative change (% from baseline) in weekly frequency of moderate to severe VMS ([1]; 10 mg QD, week 2): −37% | Mean relative change (% from baseline) in weekly frequency of moderate to severe VMS ([1]; 10 mg QD, week 3): −48% | Mean relative change (% from baseline) in weekly frequency of moderate to severe VMS ([1]; 10 mg QD, week 4): −55% | Mean relative change (% from baseline) in weekly frequency of moderate to severe VMS ([1]; 10 mg QD, week 5): −60% | Mean relative change (% from baseline) in weekly frequency of moderate to severe VMS ([1]; 10 mg QD, week 6): −65% | Mean relative change (% from baseline) in weekly frequency of moderate to severe VMS ([1]; 10 mg QD, week 10): −70% | Mean relative change (% from baseline) in weekly frequency of moderate to severe VMS ([1]; 10 mg QD, week 11): −70% | Mean relative change (% from baseline) in weekly frequency of moderate to severe VMS ([1]; 10 mg QD, week 12): −72% | Weekly frequency of moderate to severe VMS, relative change (% from baseline), Mean ([1]; 10 mg daily, week 0): 0% | Weekly frequency of moderate to severe VMS, relative change (% from baseline), Mean ([1]; 10 mg daily, week 1): −21% | Weekly frequency of moderate to severe VMS, relative change (% from baseline), Mean ([1]; 10 mg daily, week 2): −37% | Weekly frequency of moderate to severe VMS, relative change (% from baseline), Mean ([1]; 10 mg daily, week 3): −48% | Weekly frequency of moderate to severe VMS, relative change (% from baseline), Mean ([1]; 10 mg daily, week 4): −55% | Weekly frequency of moderate to severe VMS, relative change (% from baseline), Mean ([1]; 10 mg daily, week 5): −60% | Weekly frequency of moderate to severe VMS, relative change (% from baseline), Mean ([1]; 10 mg daily, week 6): −65% | Weekly frequency of moderate to severe VMS, relative change (% from baseline), Mean ([1]; 10 mg daily, week 7): −66% | Weekly frequency of moderate to severe VMS, relative change (% from baseline), Mean ([1]; 10 mg daily, week 8): −68% | Weekly frequency of moderate to severe VMS, relative change (% from baseline), Mean ([1]; 10 mg daily, week 9): −69% | Weekly frequency of moderate to severe VMS, relative change (% from baseline), Mean ([1]; 10 mg daily, week 10): −70% | Weekly frequency of moderate to severe VMS, relative change (% from baseline), Mean ([1]; 10 mg daily, week 11): −70% | Weekly frequency of moderate to severe VMS, relative change (% from baseline), Mean ([1]; 10 mg daily, week 12): −72% | Mean relative change (% from baseline) in weekly frequency of moderate to severe VMS ([1]; 15 mg QD, week 2): −46% | Mean relative change (% from baseline) in weekly frequency of moderate to severe VMS ([1]; 15 mg QD, week 3): −57% | Mean relative change (% from baseline) in weekly frequency of moderate to severe VMS ([1]; 15 mg QD, week 4): −67% | Mean relative change (% from baseline) in weekly frequency of moderate to severe VMS ([1]; 15 mg QD, week 8): −79% | Mean relative change (% from baseline) in weekly frequency of moderate to severe VMS ([1]; 15 mg QD, week 10): −80% | Mean relative change (% from baseline) in weekly frequency of moderate to severe VMS ([1]; 15 mg QD, week 11): −82% | Mean relative change (% from baseline) in weekly frequency of moderate to severe VMS ([1]; 15 mg QD, week 12): −84% | Weekly frequency of moderate to severe VMS, relative change (% from baseline), Mean ([1]; 15 mg daily, week 0): 0% | Weekly frequency of moderate to severe VMS, relative change (% from baseline), Mean ([1]; 15 mg daily, week 1): −22% | Weekly frequency of moderate to severe VMS, relative change (% from baseline), Mean ([1]; 15 mg daily, week 2): −46% | Weekly frequency of moderate to severe VMS, relative change (% from baseline), Mean ([1]; 15 mg daily, week 3): −57% | Weekly frequency of moderate to severe VMS, relative change (% from baseline), Mean ([1]; 15 mg daily, week 4): −67% | Weekly frequency of moderate to severe VMS, relative change (% from baseline), Mean ([1]; 15 mg daily, week 5): −72% | Weekly frequency of moderate to severe VMS, relative change (% from baseline), Mean ([1]; 15 mg daily, week 6): −76% | Weekly frequency of moderate to severe VMS, relative change (% from baseline), Mean ([1]; 15 mg daily, week 7): −79% | Weekly frequency of moderate to severe VMS, relative change (% from baseline), Mean ([1]; 15 mg daily, week 8): −79% | Weekly frequency of moderate to severe VMS, relative change (% from baseline), Mean ([1]; 15 mg daily, week 9): −81% | Weekly frequency of moderate to severe VMS, relative change (% from baseline), Mean ([1]; 15 mg daily, week 10): −80% | Weekly frequency of moderate to severe VMS, relative change (% from baseline), Mean ([1]; 15 mg daily, week 11): −82% | Weekly frequency of moderate to severe VMS, relative change (% from baseline), Mean ([1]; 15 mg daily, week 12): −84% | efficacy on vasomotor parameters ([1]; two lowest doses tested (2.5 mg per day and 5 mg per day)): did not show efficacy | Number of patients with biopsies ([2]; 2.5 mg daily): 4 | Number of patients with biopsies ([2]; 5 mg daily): 5 | Number of patients with biopsies ([2]; 10 mg daily): 11 | Number of patients with biopsies ([2]; 15 mg daily): 9 | requirements for biopsies ([2]; 15 mg per day group compared with 10 mg per day group): less requirements for biopsies | Count of Treatment Emergent AEs (TEAEs) ([3]; 2.5 mg daily): 61 | Percentage of patients with TEAE leading to Study Discontinuation ([3]; 2.5 mg daily): 1.9 | Percentage of patients with severe TEAE ([3]; 2.5 mg daily): 7.7 | Count of Treatment Emergent AEs (TEAEs) ([3]; 5 mg daily): 63 | Percentage of patients with TEAE leading to Study Discontinuation ([3]; 5 mg daily): 6.4 | Percentage of patients with severe TEAE ([3]; 5 mg daily): 10.6 | Count of Treatment Emergent AEs (TEAEs) ([3]; 10 mg daily): 95 | Percentage of patients with TEAE leading to Study Discontinuation ([3]; 10 mg daily): 5.6 | Percentage of patients with severe TEAE ([3]; 10 mg daily): 7.4 | average AEs per patient among patients who had AEs ([3]; 10 mg group): 3.2 AEs per patient | Count of Treatment Emergent AEs (TEAEs) ([3]; 15 mg daily): 82 | Percentage of patients with TEAE leading to Study Discontinuation ([3]; 15 mg daily): 4.1 | Percentage of patients with severe TEAE ([3]; 15 mg daily): 6.1 | average AEs per patient among patients who had AEs ([3]; 15 mg group): 2.6 AEs | Number of patients leaving the study ([4]; 2.5 mg daily): 9 | Number of patients leaving the study ([4]; 5 mg daily): 11 | Number of patients leaving the study ([4]; 10 mg daily): 15 | Number of patients leaving the study ([4]; 15 mg daily): 8

C[C@]12CC[C@@H]3c4ccc(O)cc4CC[C@H]3[C@@H]1[C@@H](O)[C@@H](O)[C@@H]2O [E4, 1,3,5 (10)-estratrien-3,15alpha, 16alpha, 17beta-tetrol]
dose up to which well tolerated and safe ([5]; given as a single dose): up to 100 mg | dose up to which well tolerated and safe ([5]; given once daily for 28 days): up to 40 mg | contribution of hepatic elimination to the overall elimination [6]: approximately 20%
